# Source: US20040141944A1, “Inhibition of xenoreactive antibodies” (priority 1998, published 2004)
# Like-named read-outs stand apart in the source and are kept apart here.
# Columns and labels:
# [1] = tested on: anti-Gal antibodies in baboon serum; assay: competition ELISA, inhibition of xenoreactive antibody activity (IC50); type: binding; details: for IC50 (FIG. 24): mass per volume of polymer, new pipette tip for each addition
# Procedure: Principle of the assay: A competition ELISA was set up in such a way that Gal-molecules linked to human serum albumin and immobilized onto a microtiter plate and Gal-molecules linked to PEG compete for anti-Gal antibodies in baboon serum. The antibodies binding to the Gal-HSA were visualized using secondary antibodies to these antibodies with appropriate color development agents. The color in the case in which no Gal-PEG was added was defined as 100%. The IC50 was defined, for FIG. 3, as the concentration of Gal-PEG needed to inhibit 50% of the color development when trying to detect antibodies immobilized onto the Gal-HSA plate. For FIG. 24, the IC50 is defined in terms of mass per volume, e.g. mg/mL, of polymer.
# Briefly, a 96 well microtiter was coated with 100 ul/well of a 30 ug/mL solution of αGal(1,3)Gal β 1-4 GlcNAc-human serum albumin (Gal-HSA) and incubated for 90 minutes at room temperature. After incubation with Gal-HSA, the plate was blocked with 1% HSA in PBS for 60 minutes.
# While the microtiter plate was coated and blocked, samples were prepared as follows: Fifteen different dilution solutions were prepared for 1 plate. The first dilution solution was 1% HSA in PBS. […] were obtained by preparing a 2.5 mL stock solution of 10 mM αGal(1,3)Gal β 1-4 GlcNAc in 1% HSA/PBS and then serially diluting 1/10 three times. Dilution solutions 6-15 were obtained by preparing a 2.5 mL stock solution of the first concentration of modified PEG and then serially diluting 1/10 nine times in 1% HSA in PBS.
# The plate was incubated for 90 minutes at 4° C. The plate was washed five times with PBS containing 0.5% Tween 20 and blot dried.
# When assaying for xenoreactive IgM, 100 ul/well of Goat anti-human IgM-biotin antibody, diluted 1/4000 in 1% HSA/PBS, was added.
# When assaying for xenoreactive IgG, 100 ul/well of Goat anti-human IgG-biotin antibody, diluted 1/4000 in 1% HSA/PBS, was added.
# The biotinylated secondary antibody was incubated for one hour at 4° C. and afterwards the plate was washed five times with PBS containing 0.5% Tween 20 and blot dried. Hereafter, 100 ul/well streptavidin-alkaline phosphatase conjugate was added at a dilution of 1/4000 in 1% HSA/PBS and incubated for 30 minutes at room temperature. The microtiter plate was washed five times with PBS containing 0.5% Tween 20 and blot dried. 150 ul developer per well was added and the plate incubated for 30 minutes at room temperature. The color development was stopped by addition of 40 ul/well of 3 M NaOH. The plate was read in a plate reader at wavelength of 405 nm.
# The IC50 data was calculated from the percent inhibition from the dilution of baboon control in 1% HSA/PBS which gave this highest point within the linear range.
# % Inhibition=(([OD of BC in HSA]−[OD of BC in αGal(1,3)Gal β 1-4 GlcNAc or PEG-(αGal(1,3)Gal β 1-4 GlcNAc)x])/OD of BC in HSA)*100
# [2] = tested on: α-gal antibody secreting cells (ASCs); assay: 810S vs immunoapheresis: peripheral α-gal antibody secreting cells (ELISPOT); type: in vivo, baboon
# Procedure: (§1) FIG. 34 compares the IgG response between IP and TPC (810) treated baboons. Baboons were either treated with 810S (50 mg/kg) every 3 days for a total of 6 treatments, or underwent a total of 6 immunoapheresis treatments using α-gal columns every 3 days. Peripheral blood mononuclear cells were collected and analyzed for the number of cells secreting IgG antibodies directed against α-gal using an ELISPOT analysis. The fold-change in antibody secreting cells (ASCs) was calculated by normalizing to baseline values. Values are represented as the mean from 3 baboons per group.
# as §1, with “35” for “34”, “IgM” for “IgG”
# (§2) A total of 6 baboons were used. Three baboons (designated 51-98, 48-98 and 47-98) underwent immunoapheresis (IP) using α-gal columns, with plasma from 3 blood volumes being passed over the columns every 3 days for a total of 6 treatments. Three other baboons (designated 46-98, 52-98, 50-98) received IV infusions of 810S at 50 mg/kg every 3 days for a total of 6 treatments. No immunosuppression or exposure to pig organs was included in the protocol.
# (§3) In both groups, serum samples and blood were collected to measure α-gal antibody levels and ASCs during the treatment period and during a follow-up period out to approximately 150-180 days.
# total IgM and total IgG = assay: 810S-treated baboons: total IgM and total IgG by ELISA; type: in vivo, baboon; details: all 3 animals, throughout the experiment
# Procedure: FIG. 28 is a graph of baboon 46-98 antibody response to 810S. Baboon 46-98 was treated with 810S (50 mg/kg) every 3 days for a total of 6 treatments. Serum was analyzed for IgM and IgG antibodies directed against the α-gal epitope (XIgM or XIgG), as well as for total IgM (TotIgM) or total IgG (TotIgG) by ELISA. The percent antibody remaining was calculated using baseline values as 100%.
# as §2
# [3] = tested on: IgM and IgG antibodies directed against the α-gal epitope (XNA); assay: 810S vs immunoapheresis: circulating α-gal antibodies (serum ELISA); type: in vivo, baboon
# Procedure: (§4) FIG. 26 is a graph of IgM XNA Levels: 810S vs IP-treated baboons. Baboons were either treated with 810S (50 mg/kg) every 3 days for a total of 6 treatments, or underwent a total of 6 immunoapheresis treatments using α-gal columns every 3 days. Serum from each baboon was analyzed by ELISA for IgM antibodies directed against the α-gal epitope. The percent IgM XNAs remaining were calculated using baseline values from each animal as 100%.
# as §4, with “FIG. 27” for “FIG. 26”, “of IgG” for “of IgM”, “for IgG” for “for IgM”, “the a -gal” for “the α-gal”
# as §2, §3
# [4] = presence of 810S in baboon serum at day 30 (competition with human XNA binding to GAL-HSA); type: in vivo; details: day 30 serum
# Description: To investigate whether 810S was still in baboon serum by day 30, serum was mixed with human serum and analyzed by ELISA for competition with human XNA binding to GAL-HSA.
# [5] = 50 mg/kg IV every 3 days, after the final (6th) treatment
compound,measurement,setting,value
"CC(=O)N[C@H]1C(O)O[C@H](CO)[C@@H](O[C@@H]2O[C@H](CO)[C@H](O)[C@H](O[C@H]3O[C@H](CO)[C@H](O)[C@H](O)[C@H]3O)[C@H]2O)[C@@H]1O (stereo partly drawn) [free sugar, αGal(1,3)Gal β 1-4 GlcNAc, reference compound]",IC50,[1],50000 µg/mL
"(αGal(1,3)Gal β 1-4 GlcNAc)8, PEG [Example 810E]",IC50 (FIG. 24),[1],100 µg/mL
"(αGal(1,3)Gal β 1-4 GlcNAc)8-PEG [Example 410L]",IC50,[1],500 µg/mL
same,times more effective per coupled sugar than the free sugar,[1]; from IC50 of 410L versus free sugar,100 times
"(αGal(1,3)Gal β 1-4 GlcNAc)8-PEG [Example 810S]","IgM and IgG ASC levels, % of initial levels",[2]; 1 week after day 30,about 62%
same,"IgM and IgG ASCs, % of starting levels",[2]; after the sixth treatment,3-6%
same,"IgM and IgG ASCs, % initial levels",[2]; by the fourth treatment,about 10%
same,"IgM and IgG ASC levels, % of initial levels",[2]; by the second treatment with 810S,20-40%
same,"IgM and IgG ASC levels, % of initial levels","[2]; day 30, 2 weeks after 810S treatment was terminated",about 38%
same,total IgM and IgG levels,total IgM and total IgG,remained relatively constant
same,"IgG XNA levels, % of baseline values",[3]; [5],1-9%
same,"IgM XNA levels, % of baseline values",[3]; [5],1-3%
same,"circulating IgG and IgM XNA levels, % of initial levels","[3]; 50 mg/kg IV, after the 1st treatment, all 3 baboons",1-13%
same,"IgG XNA levels, % of baseline values",[3]; by day 30,20-33%
same,"IgM XNA levels, % of baseline values",[3]; by day 30,8-18%
same,"IgG XNA levels, % of baseline values","[3]; day 184, 2 810S-treated baboons",30-38%
same,"IgM XNA levels, % of baseline levels","[3]; day 184, 3rd baboon",60%
same,IgG XNA levels,"[3]; day 184, one (3rd) baboon",returned to baseline
same,"IgM XNA levels, % of baseline values","[3]; day 184, the other 2 baboons",24-39%
same,810S still in baboon serum,[4],not still in circulation
same,IC50,"[1]; approximate, 810 S and its diafiltration fractions (Example 30)",0.005 µg/mL
same,IC50 (FIG. 24),[1],0.5 µg/mL
